Series [1] relates to human monocytic leukemia cell line THP-1. In words: In vitro cell viability analysis (CCK-8). It counts as cell-based. The conditions noted are these: ± SD, n = 6, medium with 10% FBS, 24 h. On the procedure: Human monocytic leukemia THP-1 cells obtained from the European Collection of Cell Cultures (ECACC, Salisbury, UK) were used for in vitro antiproliferative assays. They were routinely cultured in Roswell Park Memorial Institute RPMI 1640 medium supplemented with 10% fetal bovine serum (FBS), 2% L-glutamine, 1% penicillin, and streptomycin (all from Sigma-Aldrich) at 37 °C with 5% CO2. The cells were incubated in a complete medium (i.e., containing FBS) with test compounds at 37 °C with 5% CO2 for 24 h, similarly as we described previously. The effect of the test compounds dissolved in DMSO on cell viability was determined using a Cell Counting Kit-8 (CCK-8; Sigma) according to the manufacturer’s instructions.

For series [2], the system named is Mycobacterium tuberculosis H37Ra/ATCC 25177. In words: In vitro antimycobacterial evaluation, MIC (alamarBlue). The conditions noted are these: MT; 14 days, 37 °C. (Resazurin is reduced to fluorescent resorufin, in cell work by metabolically active cells.)
Series [3] has as its system methicillin-resistant S. aureus 63718. Nature of the series: Determination of minimum bactericidal concentrations (agar aliquot subculture). The conditions noted are these: Staphylococcus aureus.
The subject of series [4] is S. aureus ATCC 29123. In words: Crystal violet uptake (membrane permeability). Conditions: 4× MIC, 1 h; compared to growth control and 1% Tween 20.
Series [5] concerns methicillin-resistant S. aureus SA 3202. Nature of the series: Determination of minimum bactericidal concentrations (agar aliquot subculture). Conditions: Staphylococcus aureus.
Series [6] has as its system M. smegmatis ATCC 700084. Nature of the series: In vitro antimycobacterial evaluation, MIC (broth dilution micro-method). Format: cell-based, Mycobacterium smegmatis. The conditions noted are these: Mycolicibacterium smegmatis, ATCC700084, 72 h; MS; three days, 37 °C; read-out: MIC. The method, then: For M. smegmatis, the broth dilution micro-method in Middlebrook 7H9 medium (Difco) supplemented with ADC Enrichment (Difco) was used. […] Bacterial inocula were prepared by transferring colonies from culture to sterile water. The cell density was adjusted to 0.5 McFarland units using a densitometer (Densi-La-Meter, LIAP, Riga, Latvia). The final inoculum was made by 1:1000 dilution of the suspension with sterile water. Drug-free controls, sterility controls, and controls consisting of medium and DMSO alone were included. The determination of results was performed visually after three days of static incubation in the darkness at 37 °C in an aerobic atmosphere.

The test system of series [7] is Enterococcus faecalis ATCC 29212. Nature of the series: In vitro antibacterial evaluation, MIC by microtitration broth method. Conditions: ATCC29212, 24 h.
For series [8], the system named is vancomycin-resistant E. faecalis VRE 368. The description is as above. Conditions: Enterococcus faecalis, 24 h.
In series [9] the test system is vancomycin-resistant E. faecalis VRE 725B. Described as above. Conditions: Enterococcus faecalis, 24 h.
The test system of series [10] is vancomycin-resistant E. faecalis VRE 342B. The description is as above. The conditions noted are these: Enterococcus faecalis, 24 h.
The subject of series [11] is methicillin-resistant S. aureus SA 630. Nature of the series: Determination of minimum bactericidal concentrations (agar aliquot subculture). Conditions: Staphylococcus aureus.
For series [12] the test system is unchanged. Nature of the series: In vitro antibacterial evaluation, MIC by microtitration broth method. The conditions noted are these: Staphylococcus aureus, 24 h.
Series [13] deals with Staphylococcus aureus ATCC 29213. In words: Determination of minimum bactericidal concentrations (agar aliquot subculture). Conditions: ATCC29213.
The nature of series [14]: Lipophilicity determination by HPLC. Format: physicochemical. The conditions noted are these: for log D6.5: HPLC C18, MeOH 72%/acetate-buffered saline pH 6.5 28%; for log D7.4: HPLC C18, MeOH 72%/acetate-buffered saline pH 7.4 28%; for log k: logarithm of capacity factor, HPLC C18, MeOH 72%/H2O 28%. An excerpt:
. A chromatographic column Symmetry® C18 5 μm, 4.6 × 250 mm, Part No. W21751W016 (Waters Corp, Milford, MA, USA) was used. The HPLC separation process was monitored by ChemStation for LC 3D systems (Agilent Technologies). Isocratic elution by a mixture of MeOH (HPLC grade, 72%) and H2O-HPLC Mili-Q grade (28%) as a mobile phase was used for the determination of capacity factor k. Isocratic elution by a mixture of MeOH (HPLC grade, 72%) and acetate-buffered saline (pH 7.4 and pH 6.5) (28%) as a mobile phase was used for the determination of distribution coefficient expressed as D7.4 and D6.5. The total flow of the column was 1.0 mL/min, injection was 20 μL, column temperature was 40 °C, and sample temperature was 10 °C. The detection wavelength of 210 nm was chosen. A KI methanolic solution was used for the determination of the dead times (tD). Retention times (tR) were measured in minutes. The capacity factors k were calculated according to the formula k = (tR − tD)/tD, where tR is the retention time of the solute, and tD is the dead time obtained using an unretained analyte. The distribution coefficients DpH were calculated according to the formula DpH = (tR − tD)/tD. Each experiment was repeated three times.

Series [15] concerns S. aureus ATCC 29213. In words: MTT assay of bacterial viability (respiration). The conditions noted are these: for Conc.: lowest multiple of MBC with at least 70% inhibition of S. aureus viability / Conc.: lowest multiple of MIC with at least 70% inhibition of S. aureus viability: MTT, 24 h. On the technique in general: Formazan colour is commonly taken as a measure of viable cells.

The test system of series [16] is Staphylococcus aureus ATCC 29213. In words: In vitro antibacterial evaluation, MIC by microtitration broth method. The conditions noted are these: ATCC29213, 24 h.
The subject of series [17] is methicillin-resistant S. aureus SA 3202. The description is as above. The conditions noted are these: Staphylococcus aureus, 24 h.
Series [18] deals with methicillin-resistant S. aureus 63718. Described as above. The conditions noted are these: Staphylococcus aureus, 24 h.
Series [19] deals with vancomycin-resistant E. faecalis VRE 368. Nature of the series: Determination of minimum bactericidal concentrations (agar aliquot subculture). The conditions noted are these: Enterococcus faecalis.
Series [20] relates to Enterococcus faecalis ATCC 29212. The series is described as above. Conditions: ATCC29212.
Series [21] concerns vancomycin-resistant E. faecalis VRE 342B. The series is described as above. Conditions: Enterococcus faecalis.
For series [22], the system named is vancomycin-resistant E. faecalis VRE 725B. The series is described as above. Conditions: Enterococcus faecalis.

Data on four compounds can be found in PMC9569995, “Study of Biological Activities and ADMET-Related Properties of Salicylanilide-Based Peptidomimetics” (International Journal of Molecular Sciences, 2022).

Each structure is given as a SMILES string. Values after ≈ are worked out from the molar mass of the structure shown. Some results are limits rather than exact numbers.

For `O=C(N[C@@H](CC1CCCCC1)C(=O)Nc1ccc(C(F)(F)F)cc1)c1cc(Cl)ccc1O` [3g, 5-Chloro-N-[(2S)-3-cyclohexyl-1-oxo-1-{[4-(trifluoromethyl)phenyl]amino}propan-2-yl]-2-hydroxybenzamide], the IC50 (commonly the point on the concentration scale where inhibition reaches its midpoint) in series [1] came to 1.4 ± 1.1 µM. For the same compound, the MIC (as a rule, the lowest concentration that inhibits growth of the organism) was “n.a. n.d. (n.a. = no activity (MIC > 256 µg/mL))” in series [2]; > 256 µg/mL in series [6]; 546 µM in series [7]; 546 µM in series [8]; 546 µM in series [9]; 546 µM in series [10]. The MIC in series [12] turned out to be 1.07 µM (≈ 0.502 µg/mL); in series [16] it was 1.07 µM (≈ 0.502 µg/mL); in [17], 1.07 µM (≈ 0.502 µg/mL); in [18], 2.13 µM (≈ 0.999 µg/mL). The minimal bactericidal concentration (MBC) – broadly, the smallest concentration meeting the test's criterion for killing – in series [3] amounted to 2.13 µM (≈ 0.999 µg/mL); in [5], 1.07 µM (≈ 0.502 µg/mL); in [11] it was 2.13 µM (≈ 0.999 µg/mL); in series [13], 1.07 µM (≈ 0.502 µg/mL). The “effect on plasma membrane permeability (crystal violet uptake)” value in [4] is recorded as “did not affect plasma membrane permeability”. Moreover, in series [14], the “log D6.5” value is given as 1.615. The “log D7.4” value in series [14] stood at 1.576. Besides, the “averaged lipophilicity value of log k/log D6.5/log D7.4” value in series [14] (average of the three experimental descriptors) is on record as 1.62 ± 0.05. Besides, the log k in [14] is on record as 1.679. Moreover, the “Conc.: lowest multiple of MBC with at least 70% inhibition of S. aureus viability” value in series [15] was 0.5× MIC (0.5× MBC). The “Conc.: lowest multiple of MIC with at least 70% inhibition of S. aureus viability” value in series [15] was 0.5× MIC (0.5× MBC). In series [15] (at 0.5× MIC (0.5× MBC)), the “S. aureus Viability Inhibition” value was determined as 95.2%. Also, the “viability of bacterial cells” value in series [15] (at their MIC value or below) was “less than 70%”.

For the compound `CC1(C)S[C@@H]2[C@H](NC(=O)[C@H](N)c3ccccc3)C(=O)N2[C@H]1C(=O)O` [APC, ampicillin, reference compound], the minimum bactericidal concentration (MBC) in [3] is > 45.8 µM; in [19] it was 11.5 µM (≈ 4.02 µg/mL); in series [5] it was > 45.8 µM; in series [20], 2.81 µM (≈ 0.982 µg/mL); in series [21], 11.5 µM (≈ 4.02 µg/mL); in series [11] it was > 45.8 µM. The figures for the MBC in series [13] and in [22] were > 5.72 µM and 11.5 µM (≈ 4.02 µg/mL), respectively. Also, the minimal inhibitory concentration (MIC) in series [7] worked out at 2.81 µM; in [8], 11.5 µM; in series [9] it was 11.5 µM; in [10] it was 11.5 µM; in [12], 45.8 µM (≈ 16 µg/mL); in [16], 5.72 µM (≈ 2 µg/mL). The MIC in series [17] and in series [18] was 45.8 µM (≈ 16 µg/mL) each time. In addition, the “Conc.: lowest multiple of MBC with at least 70% inhibition of S. aureus viability” value in series [15] is on record as 8× MIC (>8× MBC). Besides, the “Conc.: lowest multiple of MIC with at least 70% inhibition of S. aureus viability” value in series [15] is recorded as 8× MIC (>8× MBC). In addition, the “S. aureus Viability Inhibition” value in series [15] (at 8× MIC (>8× MBC)) amounted to 90.0%.

For the compound `O=C(N[C@@H](Cc1ccccc1)C(=O)Nc1ccc(C(F)(F)F)cc1)c1cc(Cl)ccc1O` [3h], in [1], the IC50 was found to be 3.3 ± 1 µM. For the same compound, the minimum inhibitory concentration (MIC) result in series [2] was “n.a. n.d. (n.a. = no activity (MIC > 256 µg/mL))”; in [6], > 256 µg/mL; in [7], 277 µM; in series [8], 277 µM; in series [9] it was 277 µM; in [10] it was 277 µM. The minimum inhibitory concentration (MIC) amounted to 1.08 µM (≈ 0.5 µg/mL) in series [12], 1.08 µM (≈ 0.5 µg/mL) in series [16], 2.16 µM (≈ 1 µg/mL) in [17] and 0.27 µM (≈ 0.125 µg/mL) in series [18]. In addition, the MBC stood at 0.27 µM (≈ 0.125 µg/mL) in [3], 2.16 µM (≈ 1 µg/mL) in series [5], 2.16 µM (≈ 1 µg/mL) in [11] and 2.16 µM (≈ 1 µg/mL) in series [13]. Further, the “effect on plasma membrane permeability (crystal violet uptake)” value in [4] is given as “did not affect plasma membrane permeability”. The “log D6.5” value in series [14] is 1.148. Also, the “log D7.4” value in series [14] turned out to be 1.043. This compound came in with a log k in series [14] of 1.192. In series [15], the “Conc.: lowest multiple of MBC with at least 70% inhibition of S. aureus viability” value is 2× MIC (2× MBC). Besides, the “Conc.: lowest multiple of MIC with at least 70% inhibition of S. aureus viability” value in series [15] is 2× MIC (2× MBC). Besides, the “S. aureus Viability Inhibition” value in series [15] (at 2× MIC (2× MBC)) is reported as 94%.

Compound `CCCC[C@H](NC(=O)c1cc(Cl)ccc1O)C(=O)Nc1ccc(C(F)(F)F)cc1` [3d, 5-Chloro-2-hydroxy-N-[(2S)-1-oxo-1-{[4-(trifluoromethyl)phenyl]amino}hexan-2-yl]benzamide] registered an IC50 in series [1] of 4.5 ± 1.2 µM. For the same compound, the minimum inhibitory concentration (MIC) entry in series [2] was “n.a. n.d. (n.a. = no activity (MIC > 256 µg/mL))”; in series [6], > 256 µg/mL; in series [7], > 256 µg/mL; in series [8] it was > 256 µg/mL; in [9], > 256 µg/mL; in series [10], > 256 µg/mL. Further, the MIC in series [12] amounted to 2.33 µM (≈ 0.999 µg/mL); in series [16] it was 0.583 µM (≈ 0.25 µg/mL); in series [17] it was 2.33 µM (≈ 0.999 µg/mL); in [18] it was 4.66 µM (≈ 2 µg/mL). Further, the MBC in series [3] was 4.66 µM (≈ 2 µg/mL); in [5], 2.33 µM (≈ 0.999 µg/mL); in series [11], 4.66 µM (≈ 2 µg/mL); in series [13] it was 1.17 µM (≈ 0.502 µg/mL). The “log D6.5” value in [14] came to 1.247. Further, the “log D7.4” value in series [14] came to 1.213. In series [14], this compound yielded a log k of 1.322.
